Counter-ions that a name gives are not always drawn. Bounds are passed on as bounds.

Chain of Recombinant Btk (Q06187 whole entry): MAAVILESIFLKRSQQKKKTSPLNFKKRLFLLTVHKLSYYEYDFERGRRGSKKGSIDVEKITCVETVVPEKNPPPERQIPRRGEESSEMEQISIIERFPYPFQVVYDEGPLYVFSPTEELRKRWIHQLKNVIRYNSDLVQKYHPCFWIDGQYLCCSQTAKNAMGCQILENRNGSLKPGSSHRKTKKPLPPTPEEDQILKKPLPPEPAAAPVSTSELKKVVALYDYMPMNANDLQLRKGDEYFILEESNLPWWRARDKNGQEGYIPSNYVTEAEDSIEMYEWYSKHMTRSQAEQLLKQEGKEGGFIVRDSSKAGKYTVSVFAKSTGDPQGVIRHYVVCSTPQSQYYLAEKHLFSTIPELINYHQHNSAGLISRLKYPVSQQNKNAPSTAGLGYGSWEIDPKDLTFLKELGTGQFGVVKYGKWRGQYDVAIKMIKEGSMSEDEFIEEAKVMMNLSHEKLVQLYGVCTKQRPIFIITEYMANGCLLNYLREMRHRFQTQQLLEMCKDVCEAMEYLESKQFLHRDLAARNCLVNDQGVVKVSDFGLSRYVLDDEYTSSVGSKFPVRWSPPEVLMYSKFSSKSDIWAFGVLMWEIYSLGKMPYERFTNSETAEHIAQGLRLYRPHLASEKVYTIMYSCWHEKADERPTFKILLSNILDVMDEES

The experiment addresses Recombinant Btk (Homo sapiens (Human), UniProt Q06187). Kind of experiment: BTK kinase assay (TR-FRET). The settings on record: read-out: IC50 (nM) Btk; 1 hour pre-incubation, ATP at Km. (In general: Time-resolved FRET reads energy transfer from a long-lived donor to a nearby acceptor.)
Usually IC50 stands for the concentration at which inhibition is half-maximal. Regarding `NC(=O)c1c(-c2ccc(Oc3ccccc3)cc2)nn2c3c([nH]c12)CCN(C(=O)CCCl)C3` [Compound 53, 7-(3-Chloropropanoyl)-2-(4-phenoxyphenyl)-5,6,7,8-tetrahydro-4H-pyrazolo[5′,1′:2,3]imidazo[4,5-c]pyridine-3-carboxamide], the IC50 amounted to 7.7 nM.

Take `CC(=O)N1CCc2[nH]c3c(C(N)=O)c(-c4ccc(Oc5ccccc5)cc4)nn3c2C1` [Compound 55, 7-Acetyl-2-(4-phenoxyphenyl)-5,6,7,8-tetrahydro-4H-pyrazolo[5′,1′:2,3]imidazo [4,5-c]pyridine-3-carboxamide]: the IC50 stood at 82 nM.

For the molecule `N#CCC(=O)N1CCc2[nH]c3c(C(N)=O)c(-c4ccc(Oc5ccccc5)cc4)nn3c2C1` [Compound 56, 7-(2-Cyanoacetyl)-2-(4-phenoxyphenyl)-5,6,7,8-tetrahydro-4H-pyrazolo[5′,1′:2,3]imidazo[4,5-c]pyridine-3-carboxamide], the IC50 stood at 110 nM.

On to `CN(C)CCC(=O)N1CCc2[nH]c3c(C(N)=O)c(-c4ccc(Oc5ccccc5)cc4)nn3c2C1` [Compound 57, 7-(3-(Dimethylamino)propanoyl)-2-(4-phenoxyphenyl)-5,6,7,8-tetrahydro-4H-pyrazolo[5′,1′:2,3]imidazo[4,5-c]pyridine-3-carboxamide trifluoroacetate], for which the IC50 was determined as 37 nM.

For `CC=CC(=O)N1CCc2[nH]c3c(C(N)=O)c(-c4ccc(Oc5ccccc5)cc4)nn3c2C1` [Compound 58, 7-(But-2-enoyl)-2-(4-phenoxyphenyl)-5,6,7,8-tetrahydro-4H-pyrazolo [5′,1′:2,3]imidazo[4,5-c]pyridine-3-carboxamide], the IC50 was 0.43 nM.

Regarding `NC(=O)c1c(-c2ccc(Oc3ccccc3)cc2)nn2c1[nH]c1cnccc12` [Compound 61, 2-(4-Phenoxyphenyl)-4H-pyrazolo[1′,5′:1,2]imidazo[4,5-c]pyridine-3-carboxamide], the IC50 was 140 nM.

As for `NC(=O)c1c(-c2ccc(Oc3ccccc3)cc2)nn2c3c([nH]c12)CNCC3` [Compound 62, 2-(4-Phenoxyphenyl)-5,6,7,8-tetrahydro-4H-pyrazolo[1′,5′:1,2]imidazo [4,5-c]pyridine-3-carboxamide], the concentration for half-maximal inhibition (IC50) is 240 nM.

For the molecule `CN(C)C/C=C/C(=O)N1CCc2c([nH]c3c(C(N)=O)c(-c4ccc(Oc5ccccc5)cc4)nn23)C1` [Compound 64, (E)-6-(4-(Dimethylamino)but-2-enoyl)-2-(4-phenoxyphenyl)-5,6,7,8-tetrahydro-4H-pyrazolo[1′,5′:1,2]imidazo[4,5-c]pyridine-3-carboxamide trifluoroacetate], the IC50 amounted to 0.17 nM.

With `NC(=O)c1c(-c2ccc(Oc3ccccc3)cc2)nn2c1[nH]c1ccc([N+](=O)[O-])cc12` [Compound 65, 7-Nitro-2-(4-phenoxyphenyl)-4H-benzo[4,5]imidazo[1,2-b]pyrazole-3-carboxamide], the concentration for half-maximal inhibition (IC50) was determined as 320 nM.

As for `NC(=O)c1c(-c2ccc(Oc3ccccc3)cc2)nn2c1NCc1ccc(N)cc1-2` [Compound 68, 8-Amino-2-(4-phenoxyphenyl)-4,5-dihydropyrazolo[1,5-a]quinazoline-3-carboxamide], the IC50 amounted to 190 nM.

In the case of `C=CC(=O)Nc1ccc2c(c1)-n1nc(-c3ccc(Oc4ccccc4)cc3)c(C(N)=O)c1NC2` [Compound 69, 8-Acrylamido-2-(4-phenoxyphenyl)-4,5-dihydropyrazolo[1,5-a]quinazoline-3-carboxamide], the IC50 is 7.8 nM.

Regarding `NC(=O)c1c(-c2ccc(Oc3ccccc3)cc2)nn2c1NCCc1cc([N+](=O)[O-])ccc1-2` [Compound 70, 8-Nitro-2-(4-phenoxyphenyl)-5,6-dihydro-4H-benzo[f]pyrazolo[1,5-a][1,3]diazepine-3-carboxamide], the 50% inhibitory concentration (IC50) is 19 nM.

For `NC(=O)c1c(-c2ccc(Oc3ccccc3)cc2)nn2c1NCCc1cc(N)ccc1-2` [Compound 71, 8-Amino-2-(4-phenoxyphenyl)-5,6-dihydro-4H-benzo[f]pyrazolo[1,5-a][1,3]diazepine-3-carboxamide], the IC50 was determined as 55 nM.

Regarding `NC(=O)c1c(-c2ccc(Oc3ccccc3)cc2)nn2c1NC(=O)Cc1cc([N+](=O)[O-])ccc1-2` [Compound 73, 8-Nitro-5-oxo-2-(4-phenoxyphenyl)-5,6-dihydro-4H-benzo[f]pyrazolo[1,5-a][1,3]diazepine-3-carboxamide], the IC50 is over 10000 nM.

With `NC(=O)c1c(-c2ccc(Oc3ccccc3)cc2)nn2c1NC(=O)Cc1cc(N)ccc1-2` [Compound 74, 8-Amino-5-oxo-2-(4-phenoxyphenyl)-5,6-dihydro-4H-benzo[f]pyrazolo[1,5-a][1,3]diazepine-3-carboxamide], the concentration for half-maximal inhibition (IC50) was 240 nM.

For `C=CC(=O)Nc1ccc2c(c1)CC(=O)Nc1c(C(N)=O)c(-c3ccc(Oc4ccccc4)cc3)nn1-2` [Compound 75, 8-Acrylamido-5-oxo-2-(4-phenoxyphenyl)-5,6-dihydro-4H-benzo[f]pyrazolo[1,5-a][1,3]diazepine-3-carboxamide], the IC50 turned out to be 41 nM.

For the molecule `NC(=O)c1c(-c2ccc(Oc3ccccc3)cc2)nn2c1[nH]c(=O)c1cc([N+](=O)[O-])ccc12` [Compound 76, 7-Nitro-5-oxo-2-(4-phenoxyphenyl)-4,5-dihydropyrazolo[1,5-a]quinazoline-3-carboxamide], the IC50 was 5500 nM.

As for `NC(=O)c1c(-c2ccc(Oc3ccccc3)cc2)nn2c1[nH]c(=O)c1cc(N)ccc12` [Compound 77, 7-Amino-5-oxo-2-(4-phenoxyphenyl)-4,5-dihydropyrazolo[1,5-a]quinazoline-3-carboxamide], the IC50 is 480 nM.

For `C=CC(=O)Nc1ccc2c(c1)c(=O)[nH]c1c(C(N)=O)c(-c3ccc(Oc4ccccc4)cc3)nn12` [Compound 78, 7-Acrylamido-5-oxo-2-(4-phenoxyphenyl)-4,5-dihydropyrazolo[1,5-a]quinazoline-3-carboxamide], the IC50 turned out to be 21 nM.

Regarding `NC(=O)c1c(-c2ccc(Oc3ccccc3)cc2)nn2c1[nH]c(=O)c1ccc(N)cc12` [Compound 79, 8-Amino-5-oxo-2-(4-phenoxyphenyl)-4,5-dihydropyrazolo[1,5-a]quinazoline-3-carboxamide], the half-maximal inhibitory concentration (IC50) was determined as 50 nM.

For `NC(=O)c1c(-c2ccc(Oc3ccccc3)cc2)nn2c(C3CCNCC3)cc(=O)[nH]c12` [Compound 80, 5-Oxo-2-(4-phenoxyphenyl)-7-(piperidin-4-yl)-4,5-dihydropyrazolo[1,5-a]pyrimidine-3-carboxamide], the 50% inhibitory concentration (IC50) was over 10000 nM.

As to `C=CC(=O)N1CCC(c2cc(=O)[nH]c3c(C(N)=O)c(-c4ccc(Oc5ccccc5)cc4)nn23)CC1` [Compound 81], the IC50 stood at 5900 nM.

Regarding `NC(=O)c1c(-c2ccc(Oc3ccccc3)cc2)nn2c1NC(=O)C21CCNCC1` [Compound 82, 2-Oxo-6-(4-phenoxyphenyl)-1,2-dihydrospiro[imidazo[1,2-b]pyrazole-3,4′-piperidine]-7-carboxamide], the IC50 came out at 3100 nM.

With `C=CC(=O)N1CCC2(CC1)C(=O)Nc1c(C(N)=O)c(-c3ccc(Oc4ccccc4)cc3)nn12` [Compound 83, 1′-Acryloyl-2-oxo-6-(4-phenoxyphenyl)-1,2-dihydrospiro[imidazo[1,2-b]pyrazole-3,4′-piperidine]-7-carboxamide], the IC50 was found to be 130 nM.

`NC(=O)c1c(-c2ccc(Oc3ccccc3)cc2)nn2c1NCC(N)C2` (stereo not shown) [Compound 84, 6-Amino-2-(4-phenoxyphenyl)-4,5,6,7-tetrahydropyrazolo[1,5-a]pyrimidine-3-carboxamide]: the IC50 turned out to be 2900 nM.

As for `C=CC(=O)NC1CNc2c(C(N)=O)c(-c3ccc(Oc4ccccc4)cc3)nn2C1` (stereo not shown) [Compound 85, 6-Acrylamido-2-(4-phenoxyphenyl)-4,5,6,7-tetrahydropyrazolo[1,5-a]pyrimidine-3-carboxamide], the half-inhibitory concentration (IC50) was found to be 32 nM.

With `C=CC(=O)NCC1CNc2c(C(N)=O)c(-c3ccc(Oc4ccccc4)cc3)nn2C1` (stereo not shown) [Compound 86, 6-(Acrylamidomethyl)-2-(4-phenoxyphenyl)-4,5,6,7-tetrahydropyrazolo[1,5-a]pyrimidine-3-carboxamide], the IC50 came to 2.2 nM.

As for `NC(=O)c1c(-c2ccc(Oc3ccccc3)cc2)nn2c1NCC1(CNC1)C2` [Compound 87, 2′-(4-Phenoxyphenyl)-5′,7′-dihydro-4′H-spiro[azetidine-3,6′-pyrazolo[1,5-a]pyrimidine]-3′-carboxamide], the IC50 worked out at 2000 nM.

For `C=CC(=O)N1CC2(CNc3c(C(N)=O)c(-c4ccc(Oc5ccccc5)cc4)nn3C2)C1` [Compound 88, 1-Acryloyl-2′-(4-phenoxyphenyl)-5′,7′-dihydro-4′H-spiro[azetidine-3,6′-pyrazolo[1,5-a]pyrimidine]-3′-carboxamide], the IC50 was found to be 16 nM.

For `NC(=O)c1c(-c2ccc(Oc3ccccc3)cc2)nn2c1NCC(c1ccccc1N)C2` (stereo not shown) [Compound 89, 6-(2-Aminophenyl)-2-(4-phenoxyphenyl)-4,5,6,7-tetrahydropyrazolo[1,5-a]pyrimidine-3-carboxamide], the IC50 was over 10000 nM.

As for `NC(=O)c1c(-c2ccc(Oc3ccccc3)cc2)nn2c1NCC(c1cccc(N)c1)C2` (stereo not shown) [Compound 90, 6-(3-Aminophenyl)-2-(4-phenoxyphenyl)-4,5,6,7-tetrahydropyrazolo[1,5-a]pyrimidine-3-carboxamide], the IC50 came out at 1900 nM.

As for `CN(C)CCOc1cccc(C2CNc3c(C(N)=O)c(-c4ccc(Oc5ccccc5)cc4)nn3C2)c1` (stereo not shown) [Compound 91, 6-(3-(2-(Dimethylamino)ethoxy)phenyl)-2-(4-phenoxyphenyl)-4,5,6,7-tetrahydropyrazolo[1,5-a]pyrimidine-3-carboxamide], the half-inhibitory concentration (IC50) was found to be 1900 nM.

As to `CN(C)C/C=C/C(=O)Nc1ccccc1C1CCNc2c(C(N)=O)c(-c3ccc(Oc4ccccc4)cc3)nn21` (stereo not shown) [Compound 92, (E)-7-(2-(4-(dimethylamino)but-2-enamido)phenyl)-2-(4-phenoxyphenyl)-4,5,6,7-tetrahydropyrazolo[1,5-a]pyrimidine-3-carboxamide], the IC50 came out at 1.1 nM.

For `COc1ccc(-c2nn3c(c2C(N)=O)NCCC3c2ccccc2N)cc1` (stereo not shown) [Compound 93, 7-(2-Aminophenyl)-2-(4-methoxyphenyl)-4,5,6,7-tetrahydropyrazolo[1,5-a]pyrimidine-3-carboxamide], the 50% inhibitory concentration (IC50) was 1500 nM.

Source of the values: patent publication US20250340560A1, “SUBSTITUTED PYRAZOLO[1,5-a]PYRIMIDINES AS BRUTON'S TYROSINE KINASE MODULATORS” (BEIGENE SWITZERLAND GMBH, priority 2013, published 2025).
